Experiments:
[1] = test system: peripheral blood mononuclear cells (PBMC), T cells; experiment: ELISpot assay, gamma-interferon release (SFC) after stimulation with a-synuclein epitope pools; assay type: cell-based, human; conditions: for Pool +: IFNg, Pool Stimulated, number of donors with a positive response, Donors tested 1; for IFNg Peptide + (donors positive to the peptide): of donors tested (peptide); for IFNg Peptide +: number of donors positive to the single peptide
Protocol: (§1) Blood from age matched controls and PD patients were obtained and mononuclear cells were isolated by gradient centrifugation.
(§2) Release of the cytokines gamma-interferon, which measures activation of CD4+ and/or CD8+ T cells, and the interleukin, IL-5, which measures activation of CD4+ T cells was measured by ELISpot assay. […] After 22 hours of stimulation at 37 C, the cells were removed and release of cytokines was measured by colorimetric detection of spot-forming cells (SFC). Confirmed release of cytokine is determined by the presence of a minimum of 20 SFC per million cells.
(§3) The binding algorithms in SubAim 1 predict how well the peptides would bind to MHC if present, but not if they are present in patients. To determine this, the presence of T cell response against the candidate antigens by patient blood-derived peripheral blood mononuclear cells (PBMC) is assessed by ELISPOT assays upon stimulation with the peptides. This assay detects and quantifies cytokine release (in this case, IFNγ and IL-5) from specific activated T cells.
(§4) Data were obtained from blood samples (25 ml) from 44 PD patients and 24 age-matched controls. The experiments were conducted blindly. PBMCs from these samples were isolated and exposed to pools comprising the 122 candidate class I and class II antigens and phosphorylated S129 epitopes generated in Subaim 1. For the PBMCs responsive to the pooled peptides, the response was then deconvoluted to identify individual epitopes.
(§5) PMBC fractions are recovered by standard methods with Ficoll gradient and T cells expansion (Oseroff et al., 2010). The methods for the analysis of T cell reactions and measurement of cytokines production using the enzyme-linked immunosorbent spot (ELISPOT) assay are published in analogous experiments to discover antigens in multiple sclerosis (Lolli et al., 2013) and in hay fever allergens (Oseroff et al., 2010). T cell responses are determined by measuring IFNγ and IL-5 release by ELISPOT. Statistical analysis of differences between populations is expected to be non-parametric and analyzed with the U-Mann-Whitney test. If there were a normal distribution of response, which is a priori unlikely as some patients have no T cell response, with an SD=1, 8 patients per group would be required to provide a p>90% that the study detect a >2 fold difference at a two-sided 0.05 significance level.

[2] = test system: peripheral blood mononuclear cells (PBMC), T cells; experiment: ELISpot assay, IL-5 release (SFC) after stimulation with a-synuclein epitope pools; assay type: cell-based, human; conditions: for IL-g Peptide + (donors positive to the peptide): of donors tested (peptide); for IL-g Peptide +: number of donors positive to the single peptide
Protocol: as §1, §2, §3, §4, §5

[3] = Patients Summary, PD patients, single peptide
[4] = second 'Pool Stimulated' section (from r296), 12 donors tested
[5] = peptide + / donors tested (peptide), second 'Pool Stimulated' section (from r296), 12 donors tested
[6] = single peptide, second 'Pool Stimulated' section (from r296), 12 donors tested

Row | Substance | Pool + [1] | IFNg Peptide + (donors positive to the peptide) ([1]; Patients Summary, PD patients) | IFNg Response Frequency [1, 3] [%] | IFNg Total SFC [1, 3] [SFC] | IFNg Peptide + [1, 4] | IFNg Response Frequency [1, 5] [%] | IFNg Total SFC [1, 6] [SFC] | IL-g Peptide + (donors positive to the peptide) ([2]; Patients Summary, PD patients) | IL-g Response Frequency [2, 3] [%] | IL-g Total SFC [2, 3] [SFC] | IL-g Peptide + [2, 4] | IL-g Response Frequency [2, 5] [%] | IL-g Total SFC [2, 6] [SFC] | IFNg Avg SFC [1, 3] [SFC] | IL-g Avg SFC [2, 3] [SFC]
1 | 3521.0005 (AVVTGVTAV; listed as Homo sapiens) | 0 | 0 | 0 | 0 | 0 | 0 | 0 | 0 | 0 | 0 | 0 | 0 | 0 | – | –
2 | 3521.006 (VATVAEKTKE; listed as Homo sapiens) | 1 | 0 | 0 | 0 | 0 | 0 | 0 | 0 | 0 | 0 | 0 | 0 | 0 | – | –
3 | 3521.0006 (VLYVGSKTK; listed as Homo sapiens) | 0 | 5 | 83 | 1519 | – | – | – | 2 | 33 | 168 | – | – | – | 304 | 84
4 | 3521.0007 (AAATGFVKK; listed as Homo sapiens) | 0 | 0 | 0 | 0 | 0 | 0 | 0 | 0 | 0 | 0 | 0 | 0 | 0 | – | –
5 | 3521.0008 (IAAATGFVK; listed as Homo sapiens) | 0 | 0 | 0 | 0 | 0 | 0 | 0 | 1 | 25 | 177 | 0 | 0 | 0 | – | 177
6 | 3521.0009 (LYVGSKTKK; listed as Homo sapiens) | 0 | 2 | 33 | 326 | – | – | – | 1 | 17 | 559 | – | – | – | 163 | 559
7 | 3521.0011 (QVTNVGGAV; listed as Homo sapiens) | 0 | 0 | 0 | 0 | 0 | 0 | 0 | 0 | 0 | 0 | 0 | 0 | 0 | – | –
8 | 352100.45 (KTKKGVVHGV; listed as Homo sapiens) | 0 | – | – | – | – | – | – | – | – | – | – | – | – | – | –
